The values that follow come from patent US20170121315A1, “HETEROBICYCLICALLY SUBSTITUTED 4-OXOBUTANE ACID DERIVATIVES AND USE THEREOF” (priority 2014, published 2017).

T1 sequence (P39900 106-470): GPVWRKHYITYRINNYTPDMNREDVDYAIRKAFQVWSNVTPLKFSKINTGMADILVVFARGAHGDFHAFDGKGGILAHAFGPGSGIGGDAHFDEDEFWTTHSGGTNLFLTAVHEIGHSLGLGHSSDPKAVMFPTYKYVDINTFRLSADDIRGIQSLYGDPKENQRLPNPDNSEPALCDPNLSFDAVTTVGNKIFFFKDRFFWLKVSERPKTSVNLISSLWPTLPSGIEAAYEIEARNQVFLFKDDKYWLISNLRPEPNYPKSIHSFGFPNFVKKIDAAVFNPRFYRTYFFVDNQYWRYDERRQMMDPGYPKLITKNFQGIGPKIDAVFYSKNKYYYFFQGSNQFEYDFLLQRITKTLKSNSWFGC

The assay has as its target T1, human macrophage elastase (HME/hMMP-12) (Homo sapiens, UniProt P39900).
T1 construct: purchased R&D Systems 917-MP
Kind of assay: In vitro HME inhibition test (standard or high-sensitivity). The format is biochemical. The conditions noted are these: in some cases mean values, rounded to two significant figures. The method in brief:
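Autoactivated HME (0.5 nM; high-sensitivity format 0.05 nM, ~16 h) with 5 μM quenched Mca-PLGLEEA-Dap(Dnp)-NH2 substrate in HEPES pH 7.4, NaCl, CaCl2, ZnCl2, EDTA, Brij buffer, 2 h at 37° C. Fluorescence at ex 323/em 393 nm; IC50 from signal versus concentration.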
Take `O=C(CC(CCn1nnc2ccccc2c1=O)C(=O)O)c1cc2cc(OCc3ccc(Cl)c(Cl)c3)ccc2o1` (single isomer, unassigned; (-)) [Example 26, (−)-4-{5-[(3,4-Dichlorobenzyl)oxy]-1-benzofur-2-yl}-4-oxo-2-[2-(4-oxo-1,2,3-benzotriazin-3(4H)-yl)ethyl]butanoic acid]: the IC50 (commonly the concentration at which inhibition is half-maximal) was found to be 160 nM. `CCCOc1ccc2cc(C(=O)CC(CCn3nnc4ccccc4c3=O)C(=O)O)oc2c1` (single isomer, unassigned) [Example 59, 4-Oxo-2-[2-(4-oxo-1,2,3-benzotriazin-3(4H)-yl)ethyl]-4-(6-propoxy-1-benzofur-2-yl)butanoic acid] registered an IC50 of 980 nM.

Compound `NC(=O)c1ccc(COc2ccc3oc(C(=O)CC(CCn4nnc5ccccc5c4=O)C(=O)O)cc3c2)cc1` (racemic) [Example 35, (+/−)-4-{5-[(4-Carbamoylbenzyl)oxy]-1-benzofur-2-yl}-4-oxo-2-[2-(4-oxo-1,2,3-benzotriazin-3(4H)-yl)ethyl]butanoic acid] gave a half-inhibitory concentration (IC50) of 2 nM. `O=C(CC(CCn1nnc2ccccc2c1=O)C(=O)O)c1noc2cc(OCc3ccc(Cl)cc3)ccc12` (racemic) [Example 147, (+/−)-4-{6-[(4-Chlorobenzyl)oxy]-1,2-benzoxazol-3-yl}-4-oxo-2-[2-(4-oxo-1,2,3-benzotriazin-3(4H)-yl)ethyl]butanoic acid]: inhibition was half-maximal at 1.7 nM (IC50).

Turning to `N#CCCCCOc1ccc2oc(C(=O)CC(CCn3nnc4ccccc4c3=O)C(=O)O)cc2c1` (racemic) [Example 53, (+/−)-4-[5-(4-Cyanobutoxy)-1-benzofur-2-yl]-4-oxo-2-[2-(4-oxo-1,2,3-benzotriazin-3(4H)-yl)ethyl]butanoic acid], the IC50 amounted to 2.9 nM. For the compound `CCCCCOc1ccc2cc(C(=O)CC(CCn3nnc4ccccc4c3=O)C(=O)O)oc2c1` (single isomer, unassigned; (-)) [Example 56, (−)-4-Oxo-2-[2-(4-oxo-1,2,3-benzotriazin-3(4H)-yl)ethyl]-4-[6-(pentyloxy)-1-benzofur-2-yl]butanoic acid], half-maximal inhibition (IC50) required 1400 nM. Consider `O=C(CC(CCn1nnc2ccccc2c1=O)C(=O)O)c1cc2cc(OCC3CCCCC3)ccc2o1` (single isomer, unassigned; enantiomer 1) [Example 9, (−)-4-[5-(Cyclohexylmethoxy)-1-benzofur-2-yl]-4-oxo-2-[2-(4-oxo-1,2,3-benzotriazin-3(4H)-yl)ethyl]butanoic acid (enantiomer 1)], for which the IC50 amounted to 370 nM. On to `O=C(CC(CCn1nnc2ccccc2c1=O)C(=O)O)c1cc2cc(OCC3CCCC3)ccc2o1` (single isomer, unassigned; enantiomer 1) [Example 17, (−)-4-[5-(Cyclopentylmethoxy)-1-benzofur-2-yl]-4-oxo-2-[2-(4-oxo-1,2,3-benzotriazin-3(4H)-yl)ethyl]butanoic acid (enantiomer 1)], for which the IC50 turned out to be 94 nM. Turning to `O=C(CC(CCn1nnc2ccc(C(F)(F)F)cc2c1=O)C(=O)O)c1cc2ccc(OCC3CC3)cc2s1` (single isomer, unassigned; enantiomer 1) [Example 129, 4-[6-(Cyclopropylmethoxy)-1-benzothiophen-2-yl]-4-oxo-2-{2-[4-oxo-6-(trifluoromethyl)-1,2,3-benzotriazin-3(4H)-yl]ethyl}butanoic acid (enantiomer 1)], the IC50 was determined as 13 nM. `O=C(CC(CCn1nnc2ccccc2c1=O)C(=O)O)c1cc2cc(OCCc3ccccc3)ccc2o1` (single isomer, unassigned; (-)) [Example 20, (−)-4-Oxo-2-[2-(4-oxo-1,2,3-benzotriazin-3(4H)-yl)ethyl]-4-[5-(2-phenylethoxy)-1-benzofur-2-yl]butanoic acid] returned a half-maximal inhibitory concentration (IC50) of 860 nM. Under `CCCOc1ccc2cc(C(=O)CC(CCn3nnc4ccccc4c3=O)C(=O)O)oc2c1` (single isomer, unassigned) [Example 60, 4-Oxo-2-[2-(4-oxo-1,2,3-benzotriazin-3(4H)-yl)ethyl]-4-(6-propoxy-1-benzofur-2-yl)butanoic acid] stands 1.8 nM. Under `CCCOc1ccc2cc(C(=O)CC(CCn3nnc4ccc(C(F)(F)F)cc4c3=O)C(=O)O)sc2c1` (racemic) [Example 132, (+/−)-4-Oxo-2-{2-[4-oxo-6-(trifluoromethyl)-1,2,3-benzotriazin-3(4H)-yl]ethyl}-4-(6-propoxy-1-benzothiophen-2-yl)butanoic acid] stands 0.51 nM.

As for `CC(C)CCCOc1ccc2oc(C(=O)CC(CCn3nnc4ccccc4c3=O)C(=O)O)cc2c1` (racemic) [Example 40, (+/−)-4-{5-[(4-Methylpentyl)oxy]-1-benzofur-2-yl}-4-oxo-2-[2-(4-oxo-1,2,3-benzotriazin-3(4H)-yl)ethyl]butanoic acid], the half-maximal inhibitory concentration (IC50) is 4.6 nM. With `O=C(CC(CCn1nnc2ccccc2c1=O)C(=O)O)c1cc2cc(OCCCC(F)(F)F)ccc2o1` (racemic) [Example 11, (+/−)-4-Oxo-2-[2-(4-oxo-1,2,3-benzotriazin-3(4H)-yl)ethyl]-4-[5-(4,4,4-trifluorobutoxy)-1-benzofur-2-yl]butanoic acid] the figure was 4.3 nM; with `CCCCCCOc1ccc2cc(C(=O)CC(CCn3nnc4ccccc4c3=O)C(=O)O)oc2c1` (racemic) [Example 64, (+/−)-4-[6-(Hexyloxy)-1-benzofur-2-yl]-4-oxo-2-[2-(4-oxo-1,2,3-benzotriazin-3(4H)-yl)ethyl]butanoic acid], 2.9 nM. With `O=C(CC(CCn1nnc2ccccc2c1=O)C(=O)O)c1cc2cc(OCc3ccccc3)ccc2o1` (single isomer, unassigned; (-)) [Example 29, (−)-4-[5-(Benzyloxy)-1-benzofur-2-yl]-4-oxo-2-[2-(4-oxo-1,2,3-benzotriazin-3(4H)-yl)ethyl]butanoic acid] the figure was 770 nM; with `Cc1ccccc1CCOc1ccc2oc(C(=O)CC(CCn3nnc4ccccc4c3=O)C(=O)O)cc2c1` (racemic) [Example 4, (+/−)-4-{5-[2-(2-Methylphenyl)ethoxy]-1-benzofur-2-yl}-4-oxo-2-[2-(4-oxo-1,2,3-benzotriazin-3(4H)-yl)ethyl]butanoic acid], 4.3 nM; with `O=C(CC(CCn1nnc2ccccc2c1=O)C(=O)O)c1cc2ccc(OCC3CCC3)cc2s1` (racemic) [Example 121, (+/−)-4-[6-(Cyclobutylmethoxy)-1-benzothiophen-2-yl]-4-oxo-2-[2-(4-oxo-1,2,3-benzotriazin-3(4H)-yl)ethyl]butanoic acid], 3.1 nM. Under `O=C(CC(CCn1nnc2ccccc2c1=O)C(=O)O)c1cc2cc(OCc3cc(F)ccc3F)ccc2o1` (racemic) [Example 49, (+/−)-4-{5-[(2,5-Difluorobenzyl)oxy]-1-benzofur-2-yl}-4-oxo-2-[2-(4-oxo-1,2,3-benzotriazin-3(4H)-yl)ethyl]butanoic acid] stands 0.55 nM; under `O=C(CC(CCn1nnc2ccccc2c1=O)C(=O)O)c1coc2cc(OCC3CCOCC3)ccc12` (racemic) [Example 95, (+/−)-4-Oxo-2-[2-(4-oxo-1,2,3-benzotriazin-3(4H)-yl)ethyl]-4-[6-(tetrahydro-2H-pyran-4-ylmethoxy)-1-benzofur-3-yl]butanoic acid], 0.6 nM; under `CC(C)CCOc1ccc2cc(C(=O)CC(CCn3nnc4ccccc4c3=O)C(=O)O)sc2c1` (racemic) [Example 122, (+/−)-4-[6-(3-Methylbutoxy)-1-benzothiophen-2-yl]-4-oxo-2-[2-(4-oxo-1,2,3-benzotriazin-3(4H)-yl)ethyl]butanoic acid], 4.5 nM.

The compound `CCCCCCOc1ccc2c(C(=O)CC(CCn3nnc4ccccc4c3=O)C(=O)O)coc2c1` (racemic) [Example 98, (+/−)-4-[6-(Hexyloxy)-1-benzofur-3-yl]-4-oxo-2-[2-(4-oxo-1,2,3-benzotriazin-3(4H)-yl)ethyl]butanoic acid] came in with an IC50 of 0.4 nM. Turning to `O=C(CC(CCn1nnc2ccccc2c1=O)C(=O)O)c1cc2cc(OCC3(F)CCOCC3)ccc2o1` (racemic) [Example 14, (+/−)-4-{5-[(4-Fluorotetrahydro-2H-pyran-4-yl)methoxy]-1-benzofur-2-yl}-4-oxo-2-[2-(4-oxo-1,2,3-benzotriazin-3(4H)-yl)ethyl]butanoic acid], the concentration for half-maximal inhibition (IC50) was found to be 0.65 nM.

Compound `O=C(CC(CCn1nnc2ccccc2c1=O)C(=O)O)c1coc2cc(OCc3cccc(Cl)c3)ccc12` (racemic) [Example 77, (+/−)-4-{6-[(3-Chlorobenzyl)oxy]-1-benzofur-3-yl}-4-oxo-2-[2-(4-oxo-1,2,3-benzotriazin-3(4H)-yl)ethyl]butanoic acid] registered an IC50 of 2.9 nM. Under `O=C(CC(CCn1nnc2ccccc2c1=O)C(=O)O)c1cc2cc(OCc3ccncc3)ccc2o1` (racemic) [Example 47, (+/−)-4-Oxo-2-[2-(4-oxo-1,2,3-benzotriazin-3(4H)-yl)ethyl]-4-[5-(pyridin-4-ylmethoxy)-1-benzofur-2-yl]butanoic acid] stands 0.94 nM; under `O=C(CC(CCn1nnc2ccccc2c1=O)C(=O)O)c1noc2cc(OCCC3CCCCC3)ccc12` (racemic) [Example 141, (+/−)-4-[6-(2-Cyclohexylethoxy)-1,2-benzoxazol-3-yl]-4-oxo-2-[2-(4-oxo-1,2,3-benzotriazin-3(4H)-yl)ethyl]butanoic acid], 0.12 nM. Under `CCCCOc1ccc2c(C(=O)CC(CCn3nnc4ccccc4c3=O)C(=O)O)coc2c1` (single isomer, unassigned; (-)) [Example 109, (−)-4-(6-Butoxy-1-benzofur-3-yl)-4-oxo-2-[2-(4-oxo-1,2,3-benzotriazin-3(4H)-yl)ethyl]butanoic acid] stands 10 nM; under `O=C(CC(CCn1nnc2ccccc2c1=O)C(=O)O)c1cc2ccc(OCC3CCCO3)cc2s1` (racemic) [Example 117, (+/−)-4-Oxo-2-[2-(4-oxo-1,2,3-benzotriazin-3(4H)-yl)ethyl]-4-{6-[tetrahydrofuran-2-ylmethoxy]-1-benzothiophen-2-yl}butanoic acid], 5.9 nM.
